According to patent US20100197610A1, “FRUCTOSE 1, 6 BISPHOSPHATE - A NOVEL ANTICONVULSANT DRUG” (Baylor College of Medicine, priority 2007, published 2010):

How the values were obtained:
[1] = cited from earlier work
[2] = test system: PTZ-induced generalized tonic-clonic seizures; assay: PTZ model of acute seizures; type: in vivo, Sprague Dawley rats
Experimental: (§1) All animal experiments were carried out in accordance with the National Institutes of Health guide for the care and use of laboratory animals (NIH publication 8023, revised 1996) and with the approval of the local Animal Use Committee. Unless indicated, all chemicals were obtained from Sigma Chemical Co (St. Louis Mo.). Male, Sprague Dawley rats weighing 50-74 g (young) or 147-309 g (adult) were used in this study. Acute seizures were induced by kainic acid (KA; Ocean Produce Int., Canada), pilocarpine or pentylenetetrazole (PTZ) as previously described (Lian et al 2006). These models were chosen because they initiate seizures by different mechanisms and the seizures have a relatively gradual onset compared to seizures initiated by stimulation. There was no difference in the body weight of the animals receiving the different convulsants. For pilocarpine, kainic acid and PTZ, the mean weights were 219±5 g (range 163-275 g), 215±7 g (range 183-258 g), and 216±13 g (range 147-309 g), respectively. The animals in the drug treatment groups were not different in weight from the animals in the control groups.
(§2) After administration of KA (10 mg/kg, ip), pilocarpine (scopolamine methyl bromide 1 mg/kg, s.c followed 15 min later by 300 mg/kg, ip pilocarpine) or PTZ (50 mg/kg, ip) (Lian et al., 2006), animals were continuously monitored for seizure activity for at least 5 h after KA or pilocarpine and for 30 min after PTZ. Behavioral seizures were scored by an investigator blinded to the treatment. Latency to the first wet dog shake after KA, latency to the first forelimb clonus (after pilocarpine, kainic acid or PTZ) and the score and duration of seizures were measured. When at least 1 hour had passed without any head bobbing (for pilocarpine) or any wet dog shakes (for KA), seizures were considered over. Status epilepticus lasting longer than 4 hours (for KA) or 5 hours (for pilocarpine) were assigned 4 and 5 hours for seizure duration. For animals receiving PTZ, the seizure duration was defined as the period of tonic-clonic seizures. EEG recording in the hippocampus was conducted as previously described (Lian et al., 2004). After anesthesia, a recording electrode was placed in a burr hole centered at 3.0 mm posterior to bregma, 1.8 mm lateral to the midline and then lowered 3.0 mm. A ground screw and wire was placed over the frontal region in another burr hole. This assembly was fixed to the skull with dental cement.
(§3) Adult rats received either D-F1,6BP, sodium valproate (VPA, 0.3 g/kg), 2-DG (0.25, 0.5 g/kg) or normal saline (vehicle) intraperitoneally followed 1 h later by one of the convulsants. The dose for VPA was based on experimental evidence that doses from 0.1 to 0.4 g/kg (ip) are effective in animal models (Bough and Eagles, 2001; Manent et al., 2007). Three doses of F1,6BP (0.25, 0.5 and 1 g/kg) were tested with this dosing schedule. Two additional groups were administered F1,6BP (0.5 or 1 g/kg, n=5) after pilocarpine. In this experiment, the F1,6BP was given intraperitoneally at the first behavioral seizure, which was chewing movements of the jaw. Two additional sets of animals were fed the classic ketogenic diet (No. F3666; Bio-Serv, Frenchtown, N.J.). One set of animals was given the diet beginning on postnatal day 22-26 (KD-Yng) and maintained on this diet for 4 weeks. Thus the seizures were tested in this group when the animals had reached approximately the same age (50-54 days) as the majority of the animals tested.
The latency to seizure onset, seizure score and seizure duration were averaged across animals in each group. Comparisons between groups were done with an analysis of variance with Bonferroni post hoc test. Statistical difference was defined as p<0.05.

[3] = intravenous, rats (Nunes et al., 2003); cited from earlier work
[4] = Markov et al., 2000; cited from earlier work
[5] = test system: pilocarpine-induced seizures; assay: Pilocarpine model of acute seizures; type: in vivo, Sprague Dawley rats
Experimental: as §1, §2
(§4) Each animal was assigned the score of the most severe seizure observed. The behavioral seizures induced by KA or pilocarpine were scored according to an adjusted version of the scale of Racine (Bough et al., 2002): stage 1, wet dog shakes after KA or trembling after pilocarpine; stage 2, head bobbing and stereotypes; stage 3, unilateral forelimb clonus; stage 4, bilateral forelimb clonus; stage 5, rearing and falling; stage 6, jumping and/or running followed by falling. Death within 24 h was assigned stage 7.
as §3, with “tested. […]” for “tested.”

[6] = test system: kainic acid-induced seizures; assay: Kainic acid model of acute seizures; type: in vivo, Sprague Dawley rats; conditions: for animals with mild seizures (wet dog shakes or head bobbing) / animals with severe seizures: 8 animals
Experimental: as §1, §2, §4
as §3, with “tested. […]” for “tested.”

[7] = 1 g/kg given at first sign of seizure activity after pilocarpine

O=C(COP(=O)(O)O)[C@@H](O)[C@H](O)[C@H](O)COP(=O)(O)O [F1,6BP, Fructose-1,6-bisphosphate]
toxicity in humans ([1]; administered to humans): no reported toxicity | safety in healthy volunteers ([1]; doses from 5 to 15 g): safe | latency to the seizures ([2]; F1,6BP 0.25 g/kg, n=6): 107 ± 6 s | seizure duration ([2]; F1,6BP 0.25 g/kg, n=6): 18 ± 2 s | latency to the seizures ([2]; F1,6BP 0.5 g/kg, n=6): 161 ± 16 s | seizure duration ([2]; F1,6BP 0.5 g/kg, n=6): 12 ± 1 s | animals with no seizures ([2]; F1,6BP 1 g/kg): Three out of 8 | latency to the seizures ([2]; F1,6BP 1 g/kg, n=7): 259 ± 32 s | seizure duration ([2]; F1,6BP 1 g/kg, n=7): 11 ± 3 s | LD50 [3]: 1,068 mg/kg | FDP in blood of humans after administration of FDP [4]: 3.39 mg/dL | latency to forelimb clonus [5, 7]: increase | seizure duration [5, 7]: decrease | progression of the seizures ([5]; 1 g/kg given at first sign of seizure activity after pilocarpine, n=5): significantly slowed | behavioral or electrographic seizures (hippocampal EEG) ([5]; 4 rats pretreated with 1 g/kg): no behavioral or electrographic seizures | effect on the seizure parameters ([5]; F1,6BP 0.25 g/kg ip 1 h before pilocarpine, n=5): no effect | animals with a seizure score ≧3 ([5]; F1,6BP 0.5 g/kg ip 1 h before pilocarpine): 3 out of 10 | animals with a seizure score ≧3 ([5]; F1,6BP 1 g/kg ip 1 h before pilocarpine): 2 out of 10 | seizure duration ([5]; pretreated with 0.5 or 1 g/kg): significantly decreased | seizure score ([5]; pretreated with 0.5 or 1 g/kg): significantly decreased | latency to the seizures ([5]; the 5 animals with score ≧3 after 0.5 or 1 g/kg pretreatment): significantly increased | effect on the seizures ([6]; F1,6BP 0.25 g/kg, n=6): no effect | animals with no seizures ([6]; F1,6BP 0.5 g/kg): Two out of 8 | mean seizure score ([6]; F1,6BP 0.5 g/kg): 2.5±0.5 | animals with mild seizures (wet dog shakes or head bobbing) ([6]; F1,6BP 0.5 g/kg): three | animals with severe seizures ([6]; F1,6BP 0.5 g/kg): 3 | onset of seizures ([6]; F1,6BP 0.5 or 1 g/kg): significantly delayed | seizure duration ([6]; F1,6BP 0.5 or 1 g/kg): decreased | seizure score ([6]; F1,6BP 0.5 or 1 g/kg): decreased | animals with no seizures ([6]; F1,6BP 1 g/kg): Three out of 8 | average seizure score for the entire group ([6]; F1,6BP 1 g/kg): 1.4±0.5 | mean latency to first forelimb clonus ([6]; F1,6BP 1 g/kg): 105 ± 7 min | animals with mild seizures (wet dog shakes or head bobbing) ([6]; F1,6BP 1 g/kg): 3 | animals with severe seizures ([6]; F1,6BP 1 g/kg): 2
